Laboratory results as given in US10633383B2, “Compounds for the treatment, alleviation or prevention of disorders associated with Tau aggregates” (AC Immune SA, priority 2018, dated 2020).

Columns and labels:
rTg4510 mice [1] = assay: Histology for misfolded Tau (MC1) in rTg4510 mice; format: in vivo, mouse; settings: 30 mg/kg bi-daily by gavage for 1 month, frontal cortex (FIG. 2)
Description: (§1) In Vivo Efficacy of the Compounds of the Present Invention In Vivo Study Design for the Testing of Example 12 and Example 45
(§2) Double transgenic rTg4510 mice express the full-length human Tau carrying the P301L mutation (Tau4R0N-P301L) under the control of the tet-inducible CaMKII promoter (Ramsden et al., J. Neurosci., 2005⋅25(46):10637-10647). Single transgenic mice expressing only the tetracycline-controlled transactivator (tTA) were used as genotype controls. The study comprised 4 treatment groups (n=15 female for tTa group and n=11 female mice/group for the treatment) with the following group distribution (see Table 9). […]
After perfusion, brains were then removed and hemi-sagitally hemisected. […] A systematic random set of sections from seven sagittal levels per animal was used to quantify the Iba1 and CD68 immunoreactivity while 1 section/animal from the medio-lateral level 4 were used to assess Tau misfolding (MC1 monoclonal antibody). […] Sections were imaged using a digital slide scanner (Panoramic 250 Flash, 3D Histech Ltd.) and quantified using the image visualization software Visiopharm.
MC1 staining was analyzed in the frontal cortex in the upper cortical layers. […] This ROI was analyzed in Visiopharm using a predetermined threshold for MC1 staining with a pixel intensity threshold above 30 (8 bits pictures) and excluding all detected objects smaller than 20 μm^2. […]

[2] = biological target: T1, Tau K18 fragment (amino acids 244 to 372 of human Tau441) aggregates (Homo sapiens, UniProt P10636); assay: Tau K18 disaggregation assay by ThT; format: biochemical; settings: 2 μM K18 aggregates, 30 minutes at RT, ThT fluorescence
T1 construct: encompassing amino acids 244 to 372 of the longest isoform (2N4R) of human Tau441; host or cells: bacteria
T1 sequence (P10636 561-689): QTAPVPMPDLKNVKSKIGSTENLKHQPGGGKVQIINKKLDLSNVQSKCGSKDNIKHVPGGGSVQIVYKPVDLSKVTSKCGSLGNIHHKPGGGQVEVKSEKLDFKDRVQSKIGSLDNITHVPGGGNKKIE

rTg4510 mice [3] = assay: Total human Tau in CSF of rTg4510 mice (AlphaLISA); format: in vivo, mouse; settings: 30 mg/kg bi-daily by gavage for 1 month, vs vehicle treated rTg4510 mice (FIG. 1)
Description: as §1, §2
Mice were deeply anesthetized by standard injectable anesthesia and transcardially perfused with cold PBS. […] Total human Tau in CSF Tau was quantified using the following antibody pairs: HT7-Acceptor beads+biotin (BT)-Tau13-donor beads. […]
After incubation of this mixture at room temperature for 1 hour, 25 μL of Streptavidin Donor beads (Perkin Elmer) at 25 μg/mL were added in the dark. Plates were analyzed after 30 minute incubation using the EnSpire Alpha instrument and EnSpire Workstation version 3.00. Data were analyzed by 1-way ANOVA followed by post-hoc comparisons and shown statistics refers to differences compared to vehicle treated rTg4510 mice.

`Fc1ccc2[nH]c3c(c2c1)CN(c1ccc2nc(N4CCOCC4)oc2c1)CC3` [Example 12] was tested, and the “MC1 positive area (misfolded Tau)” value (rTg4510 mice [1]) was “decreased the MC1 positive area”, the EC50 [2] was under 10 µM and the “Tau levels in CSF” value (rTg4510 mice [3]) was “decreased Tau levels in CSF”.
